According to US12110293B2, “Substituted triazolo quinoxaline derivatives” (GRÜNENTHAL GMBH, priority 2018, dated 2024):

biological target: T1, glucocorticoid receptor (Homo sapiens, UniProt P04150); assay: Agonistic mode of action on the glucocorticoid receptor (CHO-Gal4/GR luciferase reporter cell line); format: cell-based; details: range class observed in the agonistic assay or the antagonistic assay (CHO-Gal4/GR reporter cells); table does not say which mode applies per example
T1 construct: expressed in transfected cells
T1 sequence (P04150 524-758 limits assumed): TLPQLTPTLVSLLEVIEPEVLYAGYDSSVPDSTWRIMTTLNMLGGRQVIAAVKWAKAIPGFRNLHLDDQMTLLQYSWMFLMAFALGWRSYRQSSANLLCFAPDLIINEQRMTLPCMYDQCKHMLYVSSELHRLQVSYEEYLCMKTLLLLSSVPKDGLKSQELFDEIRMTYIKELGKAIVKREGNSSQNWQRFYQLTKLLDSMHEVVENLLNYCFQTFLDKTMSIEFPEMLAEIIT
In short: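 Agonism measured as dose-dependent luciferase luminescence (FLIPR Tetra) from a GAL4-UAS reporter driven by GAL4 DBD fused to GR ligand-binding domain in stable CHO cells. Eight half-log doses, 10 μM to 0.003 μM final in 0.5% DMSO, quadruplicate, on cells seeded 24 h earlier at 5000/well; EC50 derived.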

IC50 or EC50 (agonist or antagonist mode not specified) [nM]	Compound
< 100	Cc1c(-c2cc(F)cc3c(C)c[nH]c23)c(F)cc2c1-n1c(C)nnc1C(C)(C)N2 [Example 31, 7-fluoro-8-(5-fluoro-3-methyl-1H-indol-7-yl)-1,4,4,9-tetramethyl-4,5-dihydro-[1,2,4]triazolo[4,3-a]quinoxaline]
100 to 1000	Cc1nnc2n1-c1c(cc(F)c(-c3cccc4c(C#N)c[nH]c34)c1C(F)(F)F)NC2(C)C [Example 89, 7-(7-fluoro-1,4,4-trimethyl-9-(trifluoromethyl)-4,5-dihydro-[1,2,4]triazolo[4,3-a]quinoxalin-8-yl)-1H-indole-3-carbonitrile]
< 100	COc1c(-c2cc(F)cc3c(C4CC4)c[nH]c23)c(F)cc2c1-n1c(C)nnc1C(C)(C)N2 [Example 483, 8-(3-Cyclopropyl-5-fluoro-1H-indol-7-yl)-7-fluoro-9-methoxy-1,4,4-trimethyl-5H-[1,2,4]triazolo[4,3-a] quinoxaline]
100 to 1000	Cc1c[nH]c2c(-c3c(F)cc4c(c3F)-n3c(Cc5ccccc5)nnc3C(C)(C)N4)cccc12 [Example 68, 1-Benzyl-7,9-difluoro-4,4-dimethyl-8-(3-methyl-1H-indol-7-yl)-5H-[1,2,4]triazolo[4,3-a]quinoxaline]
100 to 1000	Cc1cc2c(c(F)c1-c1cccc3c(C)c[nH]c13)-n1c(C)nnc1C(C)(C)N2 [Example 359, 9-Fluoro-1,4,4,7-tetramethyl-8-(3-methyl-1H-indol-7-yl)-5H-[1,2,4]triazolo[4,3-a]quinoxaline]
1000 to 15000	Cc1c(-c2cccc3c2ccn3S(C)(=O)=O)c(Cl)cc2c1-n1c(C)nnc1C(C)(C)N2 [Example 317, 7-Chloro-1,4,4,9-tetramethyl-8-(1-methylsulfonyl-1H-indol-4-yl)-5H-[1,2,4]triazolo[4,3-a]quinoxaline]
< 100	Cc1c(-c2cc(F)cc3c(CC(F)(F)F)c[nH]c23)c(F)cc2c1-n1c(C)nnc1C(C)(C)N2 [Example 23, 7-fluoro-8-(5-fluoro-3-(2,2,2-trifluoroethyl)-1H-indol-7-yl)-1,4,4,9-tetramethyl-4,5-dihydro-[1,2,4]triazolo[4,3-a]quinoxaline]
100 to 1000	Cc1nnc2n1-c1c(cc(F)c(-c3cccc4c3cnn4C)c1F)NC2(C)C [Example 221, 7,9-Difluoro-1,4,4-trimethyl-8-(1-methyl-1H-indazol-4-yl)-5H-[1,2,4]triazolo[4,3-a]quinoxaline]
100 to 1000	Cc1c(-c2ccc(F)c3[nH]ccc23)c(F)cc2c1-n1c(C)nnc1C(C)(C)N2 [Example 504, 7-Fluoro-8-(7-fluoro-1H-indol-4-yl)-1,4,4,9-tetramethyl-5H-[1,2,4]triazolo[4,3-a]quinoxaline]
< 100	Cc1c(-c2cc(F)cc3c2ccn3C)c(Cl)cc2c1-n1c(C)nnc1C(C)(C)N2 [Example 519, 7-Chloro-8-(6-fluoro-1-methyl-1H-indol-4-yl)-1,4,4,9-tetramethyl-5H-[1,2,4]triazolo[4,3-a]quinoxaline]
1000 to 15000	CCc1nnc2n1-c1c(cc(F)c(-c3cc(F)cc4c3cnn4S(C)(=O)=O)c1C)NC2(C)C [Example 348, 1-Ethyl-7-fluoro-8-(6-fluoro-1-methylsulfonyl-1H-indazol-4-yl)-4,4,9-trimethyl-5H-[1,2,4]triazolo [4,3-a]quinoxaline]
100 to 1000	Cc1nnc2n1-c1c(cc(F)c(-c3cccc4c3ccn4C)c1C(F)F)NC2(C)C [Example 481, 9-(Difluoro-methyl)-7-fluoro-1,4,4-trimethyl-8-(1-methyl-1H-indol-4-yl)-5H-[1,2,4]triazolo[4,3-a] quinoxaline]
< 100	Cc1nnc2n1-c1c(cc(F)c(-c3cccc4c3ccn4S(C)(=O)=O)c1C1CC1)NC2(C)C [Example 462, 9-Cyclopropyl-7-fluoro-1,4,4-trimethyl-8-(1-methylsulfonyl-1H-indol-4-yl)-5H-[1,2,4]triazolo [4,3-a]quinoxaline]
100 to 1000	Cc1nnc2n1-c1c(cc(F)c(-c3cccc4[nH]ncc34)c1F)NC2(C)C [Example 232, 7,9-Difluoro-8-(1H-indazol-4-yl)-1,4,4-trimethyl-5H-[1,2,4]triazolo[4,3-a]quinoxaline]
< 100	Cc1c(-c2cc(F)cc3c(C4CC4)c[nH]c23)c(Cl)cc2c1-n1c(C)nnc1C(C)(C)N2 [Example 485, 7-Chloro-8-(3-cyclopropyl-5-fluoro-1H-indol-7-yl)-1,4,4,9-tetramethyl-5H-[1,2,4]triazolo [4,3-a]quinoxaline]
1000 to 15000	Cc1nnc2n1-c1c(cc(F)c(-c3cccc4c3ccn4CCNC(=O)OC(C)(C)C)c1F)NC2(C)C [Example 228, N-[2-[4-(7,9-Difluoro-1,4,4-trimethyl-5H-[1,2,4]triazolo[4,3-a]quinoxalin-8-yl)-1H-indol-1-yl]-ethyl]-carbarmic acid tert-butyl ester]
1000 to 15000	COc1cc2c(c(F)c1-c1cccc3c1ccn3CC(F)F)-n1c(C)nnc1C(C)(C)N2 [Example 314, 8-[1-(2,2-Difluoro-ethyl)-1H-indol-4-yl]-9-fluoro-7-methoxy-1,4,4-trimethyl-5H-[1,2,4]triazolo[4,3-a]quinoxaline]
1000 to 15000	Cc1c(-c2cccc3c2ccn3CC(F)F)c(OC(F)F)cc2c1-n1c(C)nnc1C(C)(C)N2 [Example 384, 8-[1-(2,2-Difluoro-ethyl)-1H-indol-4-yl]-7-(difluoro-methoxy)-1,4,4,9-tetramethyl-5H-[1,2,4]triazolo[4,3-a]quinoxaline]
< 100	Cc1nnc2n1-c1c(cc(F)c(-c3cc(F)cc4c3ccn4S(C)(=O)=O)c1C(F)(F)F)NC2(C)C [Example 37, 7-fluoro-8-(6-fluoro-1-(methylsulfonyl)-1H-indol-4-yl)-1,4,4-trimethyl-9-(trifluoromethyl)-4,5-dihydro-[1,2,4]triazolo[4,3-a]quinoxaline]
< 100	Cc1c(-c2cccc3c(C#CC(C)(C)N)c[nH]c23)c(F)cc2c1-n1c(C)nnc1C(C)(C)N2 [Example 40]
100 to 1000	Cc1nnc2n1-c1c(cc(F)c(-c3ccc(Cl)c4[nH]ccc34)c1F)NC2(C)C [Example 529, 8-(7-Chloro-1H-indol-4-yl)-7,9-difluoro-1,4,4-trimethyl-5H-[1,2,4]triazolo[4,3-a]quinoxaline]
< 100	Cc1nnc2n1-c1c(cc(F)c(-c3cccc4[nH]ccc34)c1F)NC2(C)C [Example 445, 7,9-Difluoro-8-(1H-indol-4-yl)-1,4,4-trimethyl-5H-[1,2,4] triazolo[4,3-a]quinoxaline]
1000 to 15000	CCc1nnc2n1-c1c(cc(F)c(-c3cccc4c3ccn4S(C)(=O)=O)c1C)NC2(C)C [Example 247, 1-Ethyl-7-fluoro-4,4,9-trimethyl-8-(1-methylsulfonyl-1H-indol-4-yl)-5H-[1,2,4]triazolo[4,3-a]quinoxaline]
< 100	CC#CCc1nnc2n1-c1c(cc(F)c(-c3cc(F)cc4c(C)c[nH]c34)c1F)NC2(C)C [Example 69, 1-(but-2-yn-1-yl)-7,9-difluoro-8-(5-fluoro-3-methyl-1H-indol-7-yl)-4,4-dimethyl-4,5-dihydro-[1,2,4]triazolo[4,3-a]quinoxaline]
< 100	CCS(=O)(=O)n1ccc2c(-c3c(F)cc4c(c3C)-n3c(C)nnc3C(C)(C)N4)cccc21 [Example 372, 8-[1-(Ethylsulfonyl)-1H-indol-4-yl]-7-fluoro-1,4,4,9-tetramethyl-5H-[1,2,4]triazolo[4,3-a]quinoxaline]
1000 to 15000	COc1c(-c2cccc3c(C)n[nH]c23)c(F)cc2c1-n1c(C)nnc1C(C)(C)N2 [Example 381, 7-Fluoro-9-methoxy-1,4,4-trimethyl-8-(3-methyl-1H-indazol-7-yl)-5H-[1,2,4]triazolo[4,3-a]quinoxaline]
< 100	Cc1nnc2n1-c1c(cc(F)c(-c3cccc4c3ccn4CC3CC3)c1F)NC2(C)C [Example 202, 8-[1-(Cyclopropyl-methyl)-1H-indol-4-yl]-7,9-difluoro-1,4,4-trimethyl-5H-[1,2,4]triazolo[4,3-a]quinoxaline]
1000 to 15000	CC#Cc1c[nH]c2c(-c3c(F)cc4c(c3C)-n3c(CCOC)nnc3C(C)(C)N4)cc(F)cc12 [Example 79, 7-fluoro-8-(5-fluoro-3-(prop-1-yn-1-yl)-1H-indol-7-yl)-1-(2-methoxyethyl)-4,4,9-trimethyl-4,5-dihydro-[1,2,4]triazolo[4,3-a]quinoxaline]
< 100	Cc1nnc2n1-c1c(cc(F)c(-c3cc(F)cc4c3cnn4CCO)c1C(F)(F)F)NC2(C)C [Example 449, 2-[6-Fluoro-4-[7-fluoro-1,4,4-trimethyl-9-(trifluoromethyl)-5H-[1,2,4]triazolo[4,3-a]quinoxalin-8-yl]-1H-indazol-1-yl]-ethanol]
1000 to 15000	Cc1nnc2n1-c1c(cc(C(F)F)c(-c3cc(F)cc4c3ccn4CCO)c1F)NC2(C)C [Example 385, 2-[4-[7-(Difluoro-methyl)-9-fluoro-1,4,4-trimethyl-5H-[1,2,4]triazolo [4,3-a]quinoxalin-8-yl]-6-fluoro-1H-indol-1-yl]-ethanol]
